Where two headings read alike, the source gives them in different places.
Key:
Surinam grass = assay: Test C pre-/postemergence herbicide test; assay type: in vivo, Urochloa decumbens; conditions: Urochloa decumbens, pre-emergence, 312 h, read-out: Plant response rating, Surinam Grass
Procedure, shortened: (§1)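 Visual ratings on a 0–100 scale (100 = complete control) made versus untreated controls after 12 to 14 greenhouse days. Test chemicals, formulated in surfactant-containing non-phytotoxic solvent, applied preemergence to planted seeds or postemergence to 1- to 4-leaf plants (2 to 18 cm).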

kochia = assay: Test C pre-/postemergence herbicide test; assay type: in vivo, Kochia scoparia; conditions: Bassia scoparia, pre-emergence, read-out: Plant response rating, Kochia
Procedure, shortened: as §1

pigweed = assay: Test C pre-/postemergence herbicide test; assay type: in vivo, Amaranthus retroflexus; conditions: Amaranthus retroflexus, pre-emergence, read-out: Plant response rating, Pigweed
Procedure, shortened: as §1

velvetleaf [1] = assay: Test A pre-/postemergence herbicide test; assay type: in vivo, Abutilon theophrasti; conditions: Abutilon theophrasti, 240 h; for pest or weed control at 500 g/ha: 500 g ai/ha; for pest or weed control at 2000 g/ha: 2000 g ai/ha
Procedure, shortened: (§2)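 Visual injury scores on a 0–100 scale (100 = complete control) taken about ten days post-treatment in greenhouse against untreated controls; dash means no result. Treatments: preemergence soil spray and postemergence spray to runoff on one- to two-leaf plants 2 to 10 cm tall, surfactant-containing formulation.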

rice = assay: Test C flooded paddy test; assay type: in vivo, Oryza sativa; conditions: Oryza sativa
Procedure, shortened: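 Plants were grown to the 1- to 4-leaf stage (2–18 cm) and then treated postemergence, or grown to the 2-leaf stage for the flooded paddy test. They were held in a greenhouse for 12 to 14 days and then scored by eye against controls, where 0 is no effect and 100 is complete control.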

giant foxtail = assay: Test A pre-/postemergence herbicide test; assay type: in vivo, Setaria faberi; conditions: Setaria faberi, 240 h; for pest or weed control at 500 g/ha: 500 g ai/ha; for pest or weed control at 2000 g/ha: 2000 g ai/ha
Procedure, shortened: as §2

velvetleaf [2] = assay: Test C pre-/postemergence herbicide test; assay type: in vivo, Abutilon theophrasti; conditions: Abutilon theophrasti, pre-emergence, read-out: Plant response rating, Velvetleaf
Procedure, shortened: as §1

lambsquarters = assay: Test C pre-/postemergence herbicide test; assay type: in vivo, Chenopodium album; conditions: Chenopodium album, pre-emergence, read-out: Plant response rating, Lambsquarters
Procedure, shortened: as §1

corn = assay: Test C pre-/postemergence herbicide test; assay type: in vivo, Zea mays; conditions: Zea mays, pre-emergence, 312 h
Procedure, shortened: as §1

ducksalad = assay: Test C flooded paddy test; assay type: in vivo, Heteranthera limosa; conditions: Heteranthera limosa
morningglory = assay: Test A pre-/postemergence herbicide test; assay type: in vivo, Ipomoea spp.; conditions: Ipomoea, 240 h; for pest or weed control at 500 g/ha: 500 g ai/ha; for pest or weed control at 2000 g/ha: 2000 g ai/ha
Procedure, shortened: as §2

[3] = 62 g ai/ha, preemergence, scale 0 to 100
[4] = 500 g ai/ha, scale 0 to 100 (0 no effect, 100 complete control), visual, 12 to 14 days
[5] = 125 g ai/ha, scale 0 (no effect) to 100 (complete control), visual, 12 to 14 days

Question: How did the pest or weed control at 62 g/ha (Surinam grass; [3]) turn out when `CCN1N=C(C(C)(C)C)CC1C(=O)Nc1cc(C(=O)N(C)C)ccc1F` (stereo not drawn) [Compound 268, N-[5-[(dimethylamino)carbonyl]-2-fluorophenyl]-3-(1,1-dimethylethyl)-1-ethyl-4,5-dihydro-1H-pyrazole-5-carboxamide] was run?
Answer: 70%

Question: What about the pest or weed control at 250 g/ha (Surinam grass; 250 g ai/ha, scale 0-100) of the same molecule?
Answer: 95%

Question: What about the pest or weed control at 500 g/ha (Surinam grass; [4]) of the same molecule?
Answer: 100%

Question: And the pest or weed control at 62 g/ha (kochia; [3])?
Answer: 100%

Question: What about the pest or weed control at 125 g/ha (kochia; [5]) of the same molecule?
Answer: 100%

Question: What about the pest or weed control at 250 g/ha (kochia; 250 g ai/ha, scale 0-100) of the same molecule?
Answer: 100%

Question: What about the pest or weed control at 500 g/ha (kochia; [4]) of the same molecule?
Answer: 100%

Question: And the pest or weed control at 62 g/ha (pigweed; [3])?
Answer: 100%

Question: And the pest or weed control at 125 g/ha (pigweed; [5])?
Answer: 100%

Question: And the pest or weed control at 250 g/ha (pigweed; 250 g ai/ha, scale 0-100)?
Answer: 100%

Question: And the pest or weed control at 500 g/ha (pigweed; [4])?
Answer: 100%

Question: And the pest or weed control at 500 g/ha (velvetleaf [1]; post-emergence, Postemergence, 0 to 100 scale, 0 no effect, 100 complete control, read-out: Velvetleaf plant response rating)?
Answer: 45%

Question: And the pest or weed control at 2000 g/ha (velvetleaf [1]; post-emergence, Postemergence, 0 to 100 scale, 0 no effect, 100 complete control, read-out: Plant response rating, Velvetleaf)?
Answer: 45%

Question: What about the pest or weed control at 2000 g/ha (velvetleaf [1]; pre-emergence, Preemergence, visual rating, 0 to 100 scale (0 no effect, 100 complete control), read-out: Velvetleaf plant response rating) of the same molecule?
Answer: 100%

Question: What about the pest or weed control at 500 g/ha (velvetleaf [1]; pre-emergence, preemergence, visual injury, 0 to 100 scale (0 no effect, 100 complete control), read-out: Velvetleaf plant response rating) of the same molecule?
Answer: 95%

Question: And the plant injury at 62 g/ha (rice; 62 g ai/ha, scale 0 to 100, read-out: Rice plant response rating)?
Answer: 75%

Question: What about the plant injury at 125 g/ha (rice; 125 g ai/ha, scale 0 to 100 (0 no effect, 100 complete control), read-out: Rice plant response rating) of the same molecule?
Answer: 85%

Question: What about the plant injury at 250 g/ha (rice; 250 g ai/ha, scale of 0 to 100, 0 is no effect, 100 is complete control, read-out: Rice plant response rating) of the same molecule?
Answer: 90%

Question: What about the plant injury at 500 g/ha (rice; 500 g ai/ha, visual rating after 12 to 14 days, scale 0 to 100 (0 no effect, 100 complete control), read-out: Plant response rating, Rice) of the same molecule?
Answer: 90%

Question: What about the pest or weed control at 500 g/ha (giant foxtail; post-emergence, Postemergence, 0 to 100 scale, 0 no effect, 100 complete control, read-out: Foxtail, Giant plant response rating) of the same molecule?
Answer: 55%

Question: And the pest or weed control at 2000 g/ha (giant foxtail; post-emergence, Postemergence, 0 to 100 scale, 0 no effect, 100 complete control, read-out: Plant response rating, Foxtail, Giant)?
Answer: 80%

Question: And the pest or weed control at 2000 g/ha (giant foxtail; pre-emergence, Preemergence, visual rating, 0 to 100 scale (0 no effect, 100 complete control), read-out: Foxtail, Giant plant response rating)?
Answer: 100%

Question: What about the pest or weed control at 500 g/ha (giant foxtail; pre-emergence, preemergence, visual injury, 0 to 100 scale (0 no effect, 100 complete control), read-out: Foxtail, Giant plant response rating) of the same molecule?
Answer: 100%

Question: And the pest or weed control at 62 g/ha (velvetleaf [2]; [3])?
Answer: 60%

Question: What about the pest or weed control at 250 g/ha (velvetleaf [2]; 250 g ai/ha, scale 0-100) of the same molecule?
Answer: 100%

Question: What about the pest or weed control at 500 g/ha (velvetleaf [2]; [4]) of the same molecule?
Answer: 100%

Question: What about the pest or weed control at 62 g/ha (lambsquarters; [3]) of the same molecule?
Answer: 100%

Question: What about the pest or weed control at 125 g/ha (lambsquarters; [5]) of the same molecule?
Answer: 100%

Question: What about the pest or weed control at 250 g/ha (lambsquarters; 250 g ai/ha, scale 0-100) of the same molecule?
Answer: 100%

Question: What about the pest or weed control at 500 g/ha (lambsquarters; [4]) of the same molecule?
Answer: 100%

Question: And the Corn plant response rating (crop injury, 0 = no effect, 100 = complete kill) at 62 g/ha (corn; [3])?
Answer: 10%

Question: And the Corn plant response rating (crop injury, 0 = no effect, 100 = complete kill) at 125 g/ha (corn; [5])?
Answer: 45%

Question: What about the Corn plant response rating (crop injury, 0 = no effect, 100 = complete kill) at 250 g/ha (corn; 250 g ai/ha, scale 0-100) of the same molecule?
Answer: 60%

Question: And the Corn plant response rating (crop injury, 0 = no effect, 100 = complete kill) at 500 g/ha (corn; [4])?
Answer: 70%

Question: What about the pest or weed control at 62 g/ha (ducksalad; 62 g ai/ha, scale 0 to 100, read-out: Ducksalad plant response rating) of the same molecule?
Answer: 60%

Question: And the pest or weed control at 125 g/ha (ducksalad; 125 g ai/ha, scale 0 to 100 (0 no effect, 100 complete control), read-out: Ducksalad plant response rating)?
Answer: 70%

Question: What about the pest or weed control at 250 g/ha (ducksalad; 250 g ai/ha, scale of 0 to 100, 0 is no effect, 100 is complete control, read-out: Ducksalad plant response rating) of the same molecule?
Answer: 85%

Question: And the pest or weed control at 500 g/ha (ducksalad; 500 g ai/ha, visual rating after 12 to 14 days, scale 0 to 100 (0 no effect, 100 complete control), read-out: Plant response rating, Ducksalad)?
Answer: 90%

Question: What about the pest or weed control at 500 g/ha (morningglory; post-emergence, Postemergence, 0 to 100 scale, 0 no effect, 100 complete control, read-out: Morningglory plant response rating) of the same molecule?
Answer: 20%

Question: What about the pest or weed control at 2000 g/ha (morningglory; post-emergence, Postemergence, 0 to 100 scale, 0 no effect, 100 complete control, read-out: Plant response rating, Morningglory) of the same molecule?
Answer: 40%

Question: What about the pest or weed control at 2000 g/ha (morningglory; pre-emergence, Preemergence, visual rating, 0 to 100 scale (0 no effect, 100 complete control), read-out: Morningglory plant response rating) of the same molecule?
Answer: 25%

Question: And the pest or weed control at 500 g/ha (morningglory; pre-emergence, preemergence, visual injury, 0 to 100 scale (0 no effect, 100 complete control), read-out: Morningglory plant response rating)?
Answer: 5%

Source: US20060069132A1, “Azolecarboxamide herbicides” (priority 2004, published 2006)
